Assay results published in patent publication US20170190671A1, “BIS(ARYL)CATECHOL DERIVATIVES AS HERBICIDES” (E I DU PONT DE NEMOURS AND COMPANY, priority 2014, published 2017).

Assays:
Format in all cases: in vivo
[1] = system: giant foxtail (Setaria faberii); assay: Test A postemergence; conditions: Setaria faberi, post-emergence, 240 h, 0 to 100 scale, read-out: Plant response rating, Foxtail, Giant; for pest or weed control at 31 g/ha: 31 g ai/ha; for pest or weed control at 125 g/ha: 125 g ai/ha
How it was run: (§1)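 Injury scores run from 0, no effect, to 100, complete control, judged by eye against untreated plants roughly 10 days after treatment. Chemicals carried a surfactant in a non-phytotoxic solvent and went onto loam–sand soil preemergence or onto one- to two-leaf seedlings postemergence.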

[2] = system: wheat (Triticum aestivum); assay: Test A postemergence; conditions: Triticum aestivum, post-emergence, 240 h, 0 to 100 scale, read-out: Plant response rating, Wheat; for plant injury at 31 g/ha: 31 g ai/ha; for plant injury at 125 g/ha: 125 g ai/ha
How it was run: as §1

[3] = system: galium (catchweed bedstraw, Galium aparine); assay: Test A postemergence; conditions: Galium, post-emergence, 240 h, 0 to 100 scale, read-out: Plant response rating, Galium; for pest or weed control at 31 g/ha: 31 g ai/ha; for pest or weed control at 125 g/ha: 125 g ai/ha
How it was run: as §1

[4] = system: kochia (Kochia scoparia); assay: Test A postemergence; conditions: Bassia scoparia, post-emergence, 240 h, 0 to 100 scale, read-out: Plant response rating, Kochia; for pest or weed control at 31 g/ha: 31 g ai/ha; for pest or weed control at 125 g/ha: 125 g ai/ha
How it was run: as §1

[5] = system: Italian ryegrass (Lolium multiflorum); assay: Test A postemergence; conditions: Lolium multiflorum, post-emergence, 240 h, 0 to 100 scale, read-out: Plant response rating, Ryegrass, Italian; for pest or weed control at 31 g/ha: 31 g ai/ha; for pest or weed control at 125 g/ha: 125 g ai/ha
How it was run: as §1

[6] = system: barnyardgrass (Echinochloa crus-galli); assay: Test A postemergence; conditions: Echinochloa crus-galli, post-emergence, 240 h, 0 to 100 scale, read-out: Plant response rating, Barnyardgrass; for pest or weed control at 31 g/ha: 31 g ai/ha; for pest or weed control at 125 g/ha: 125 g ai/ha
How it was run: as §1

[7] = system: ragweed (common ragweed, Ambrosia elatior); assay: Test A postemergence; conditions: Ambrosia artemisiifolia, post-emergence, 240 h, 0 to 100 scale, read-out: Plant response rating, Ragweed; for pest or weed control at 31 g/ha: 31 g ai/ha; for pest or weed control at 125 g/ha: 125 g ai/ha
How it was run: as §1

[8] = system: corn (Zea mays); assay: Test A postemergence; conditions: Zea mays, post-emergence, 240 h, 0 to 100 scale; for Corn plant response rating (crop injury, 0 = no effect, 100 = complete kill) at 31 g/ha: 31 g ai/ha; for Corn plant response rating (crop injury, 0 = no effect, 100 = complete kill) at 125 g/ha: 125 g ai/ha
How it was run: as §1

[9] = system: blackgrass (Alopecurus myosuroides); assay: Test A postemergence; conditions: Alopecurus myosuroides, post-emergence, 240 h, 0 to 100 scale, read-out: Plant response rating, Blackgrass; for pest or weed control at 31 g/ha: 31 g ai/ha; for pest or weed control at 125 g/ha: 125 g ai/ha
How it was run: as §1

[10] = system: pigweed (Amaranthus retroflexus); assay: Test A postemergence; conditions: Amaranthus retroflexus, post-emergence, 240 h, 0 to 100 scale, read-out: Plant response rating, Pigweed; for pest or weed control at 31 g/ha: 31 g ai/ha; for pest or weed control at 125 g/ha: 125 g ai/ha
How it was run: as §1

[11] = system: sedge, umbrella (small-flower umbrella sedge, Cyperus difformis); assay: Test B flooded paddy; conditions: Cyperus difformis, 336 h; 250 g ai/ha, Flood, 13 to 15 days, scale 0 (no effect) to 100 (complete control); read-out: Plant response rating, Sedge, Umbrella
How it was run: (§2)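 In-water treatment: compound dosed into 3 cm flood over soil, water level unchanged throughout. Controls run alongside; visual assessment at day 13–15.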

[12] = system: rice (Oryza sativa); assay: Test B flooded paddy; conditions: Oryza sativa, 336 h; 250 g ai/ha, Flood, 13 to 15 days, scale 0 (no effect) to 100 (complete control); read-out: Plant response rating, Rice
How it was run: as §2

[13] = system: barnyardgrass (Echinochloa crus-galli); assay: Test B flooded paddy; conditions: Echinochloa crus-galli, 336 h; 250 g ai/ha, Flood, 13 to 15 days, scale 0 (no effect) to 100 (complete control); read-out: Plant response rating, Barnyardgrass
How it was run: as §2

[14] = system: ducksalad (Heteranthera limosa); assay: Test B flooded paddy; conditions: Heteranthera limosa, 336 h; 250 g ai/ha, Flood, 13 to 15 days, scale 0 (no effect) to 100 (complete control); read-out: Plant response rating, Ducksalad
How it was run: as §2

[15] = system: giant foxtail (Setaria faberii); assay: Test A preemergence; conditions: Setaria faberi, pre-emergence, 240 h, 0 to 100 scale (0 no effect, 100 complete control), read-out: Foxtail, Giant plant response rating; for pest or weed control at 31 g/ha: 31 g ai/ha; for pest or weed control at 125 g/ha: 125 g ai/ha
How it was run: as §1

[16] = system: kochia (Kochia scoparia); assay: Test A preemergence; conditions: Bassia scoparia, pre-emergence, 240 h, 0 to 100 scale (0 no effect, 100 complete control), read-out: Kochia plant response rating; for pest or weed control at 31 g/ha: 31 g ai/ha; for pest or weed control at 125 g/ha: 125 g ai/ha
How it was run: as §1

[17] = system: Italian ryegrass (Lolium multiflorum); assay: Test A preemergence; conditions: Lolium multiflorum, pre-emergence, 240 h, 0 to 100 scale (0 no effect, 100 complete control), read-out: Ryegrass, Italian plant response rating; for pest or weed control at 31 g/ha: 31 g ai/ha; for pest or weed control at 125 g/ha: 125 g ai/ha
How it was run: as §1

[18] = system: barnyardgrass (Echinochloa crus-galli); assay: Test A preemergence; conditions: Echinochloa crus-galli, pre-emergence, 240 h, 0 to 100 scale (0 no effect, 100 complete control), read-out: Barnyardgrass plant response rating; for pest or weed control at 31 g/ha: 31 g ai/ha; for pest or weed control at 125 g/ha: 125 g ai/ha
How it was run: as §1

[19] = system: ragweed (common ragweed, Ambrosia elatior); assay: Test A preemergence; conditions: Ambrosia artemisiifolia, pre-emergence, 240 h, 0 to 100 scale (0 no effect, 100 complete control), read-out: Ragweed plant response rating; for pest or weed control at 31 g/ha: 31 g ai/ha; for pest or weed control at 125 g/ha: 125 g ai/ha
How it was run: as §1

[20] = system: pigweed (Amaranthus retroflexus); assay: Test A preemergence; conditions: Amaranthus retroflexus, pre-emergence, 240 h, 0 to 100 scale (0 no effect, 100 complete control), read-out: Pigweed plant response rating; for pest or weed control at 31 g/ha: 31 g ai/ha; for pest or weed control at 125 g/ha: 125 g ai/ha
How it was run: as §1

Row | Structure (SMILES) | pest or weed control at 31 g/ha [1] [%] | pest or weed control at 125 g/ha [1] [%] | plant injury at 31 g/ha [2] [%] | plant injury at 125 g/ha [2] [%] | pest or weed control at 31 g/ha [3] [%] | pest or weed control at 125 g/ha [3] [%] | pest or weed control at 31 g/ha [4] [%] | pest or weed control at 125 g/ha [4] [%] | pest or weed control at 31 g/ha [5] [%] | pest or weed control at 125 g/ha [5] [%] | pest or weed control at 31 g/ha [6] [%] | pest or weed control at 125 g/ha [6] [%] | pest or weed control at 31 g/ha [7] [%] | pest or weed control at 125 g/ha [7] [%] | Corn plant response rating (crop injury, 0 = no effect, 100 = complete kill) at 31 g/ha [8] [%] | Corn plant response rating (crop injury, 0 = no effect, 100 = complete kill) at 125 g/ha [8] [%] | pest or weed control at 31 g/ha [9] [%] | pest or weed control at 125 g/ha [9] [%] | pest or weed control at 31 g/ha [10] [%] | pest or weed control at 125 g/ha [10] [%] | other results
1 | N#Cc1cccc(Oc2ncc(Cl)cn2)c1Oc1ccccc1Cl [Compound 40] | 0 | 0 | 0 | 0 | 0 | 10 | 0 | 0 | 0 | 0 | 0 | 0 | 0 | 0 | 0 | 0 | 0 | 0 | 0 | 30 | pest or weed control at 250 g/ha [11]: 0%; plant injury at 250 g/ha [12]: 0%; pest or weed control at 250 g/ha [13]: 0%; pest or weed control at 250 g/ha [14]: 0%; pest or weed control at 31 g/ha [15]: 0%; pest or weed control at 125 g/ha [15]: 0%; pest or weed control at 31 g/ha [16]: 0%; pest or weed control at 125 g/ha [16]: 0%; pest or weed control at 31 g/ha [17]: 0%; pest or weed control at 125 g/ha [17]: 0%; pest or weed control at 31 g/ha [18]: 0%; pest or weed control at 125 g/ha [18]: 0%; pest or weed control at 31 g/ha [19]: 0%; pest or weed control at 125 g/ha [19]: 0%; pest or weed control at 31 g/ha [20]: 0%; pest or weed control at 125 g/ha [20]: 0%
2 | FC(F)c1cccc(Oc2ncc(Br)cn2)c1Oc1ncc(Cl)cn1 [Compound 41] | 30 | 90 | 0 | 20 | 60 | 80 | 50 | 90 | 30 | 60 | 40 | 80 | 30 | 50 | 10 | 50 | 40 | 80 | 100 | 100 | pest or weed control at 250 g/ha [11]: 40%; plant injury at 250 g/ha [12]: 0%; pest or weed control at 250 g/ha [13]: 0%; pest or weed control at 250 g/ha [14]: 30%; pest or weed control at 31 g/ha [15]: 100%; pest or weed control at 125 g/ha [15]: 100%; pest or weed control at 31 g/ha [16]: 70%; pest or weed control at 125 g/ha [16]: 100%; pest or weed control at 31 g/ha [17]: 0%; pest or weed control at 125 g/ha [17]: 30%; pest or weed control at 31 g/ha [18]: 20%; pest or weed control at 125 g/ha [18]: 80%; pest or weed control at 31 g/ha [19]: 0%; pest or weed control at 125 g/ha [19]: 60%; pest or weed control at 31 g/ha [20]: 100%; pest or weed control at 125 g/ha [20]: 100%
